Assay results from patent US20110124653A1, “ARYL-SULPHONAMIDIC DIMERS AS METALLOPROTEASES INHIBITORS” (BRACCO IMAGING S.P.A., priority 2008, published 2011).

Experiments:
Test in all cases: MMP inhibition assay, fluorogenic substrate FS-6
Format in all cases: biochemical
Details in all cases: substrate FS-6 (Mca-Lys-Pro-Leu-Gly-Leu-Dpa-Ala-Arg-NH2), enzyme and inhibitor incubated 4 h at 25° C., triplicate
MMP-13 = MMP-13 (Homo sapiens, UniProt P45452)
Description: (§1) As reported therein, the inhibitory activity of the compounds of the invention was evaluated on the known fluorogenic substrate (Mca-Lys-Pro-Leu-Gly-Leu-Dpa-Ala-Arg-NH2), shortly referred to as FS-6 (see, as a reference, U. Neumann, Analytical Biochem. 2004, 328, 166-173).
(§2) Recombinant human pro-MMP-2 was supplied by Prof. Gillian Murphy (Department of Oncology, University of Cambridge, UK), while pro-MMP-13 and pro-MMP-14 were purchased from Calbiochem. […] Pro-MMP-14 was activated with trypsin 5 μg/ml for 15 min at 37° C. followed by soybean trypsin inhibitor (SBTI) 23 μg/ml. For assay measurements, the inhibitor stock solutions (DMSO, 100 mM) were further diluted, at seven different concentrations (0.01 nM-100 μM) for each MMP in the fluorimetric assay buffer (FAB: Tris 50 mM, pH=7.5, NaCl 150 mM, CaCl2 10 mM, Brij 35 0.05% and DMSO 1%). Activated enzyme (final concentration 2.9 nM for MMP-2, 1 nM for MMP-14, 0.33 nM for MMP-13) and inhibitor solutions were incubated in the assay buffer for 4 h at 25° C. After the addition of 200 μM solution of the fluorogenic substrate Mca-Lys-Pro-Leu-Gly-Leu-Dpa-Ala-Arg-NH2 (Bachem) (see, for a reference, Neumann, U.; Kubota, H.; Frei, K.; Ganu, V.; Leppert, D. Anal. Biochem. 2004, 328, 166) for all of the enzymes in DMSO (final concentration 2 μM), the hydrolysis was monitored every 15 sec. for 20 min recording the increase in fluorescence (λex=325 nm, λem=395 nm) using a Molecular Device SpectraMax Gemini XS plate reader.
(§3) The assays were performed in triplicate, in a total volume of 200 μl per well, in 96-well microtitre plates (Corning, black, NBS). Control wells lack inhibitor. The MMP inhibition activity was expressed in relative fluorescent units (RFU). Percent of inhibition was calculated from control reactions without the inhibitor. IC50 was determined using the formula: Vi/Vo=1/(1+[I]/IC50), where Vi is the initial velocity of substrate cleavage in the presence of the inhibitor at concentration [I] and Vo is the initial velocity in the absence of the inhibitor. Results were analyzed using SoftMax Pro software and GraFit software.

MMP-14 = target: T1, MMP-14 (Homo sapiens, UniProt P50281)
T1 construct: purchased Calbiochem
Description: as §1, §2, §3

MMP-2 = target: T2, MMP-2 (Homo sapiens, UniProt P08253)
T2 construct: Prof; Gillian Murphy (Department of Oncology, University of Cambridge, UK)
T2 sequence (P08253 110-660): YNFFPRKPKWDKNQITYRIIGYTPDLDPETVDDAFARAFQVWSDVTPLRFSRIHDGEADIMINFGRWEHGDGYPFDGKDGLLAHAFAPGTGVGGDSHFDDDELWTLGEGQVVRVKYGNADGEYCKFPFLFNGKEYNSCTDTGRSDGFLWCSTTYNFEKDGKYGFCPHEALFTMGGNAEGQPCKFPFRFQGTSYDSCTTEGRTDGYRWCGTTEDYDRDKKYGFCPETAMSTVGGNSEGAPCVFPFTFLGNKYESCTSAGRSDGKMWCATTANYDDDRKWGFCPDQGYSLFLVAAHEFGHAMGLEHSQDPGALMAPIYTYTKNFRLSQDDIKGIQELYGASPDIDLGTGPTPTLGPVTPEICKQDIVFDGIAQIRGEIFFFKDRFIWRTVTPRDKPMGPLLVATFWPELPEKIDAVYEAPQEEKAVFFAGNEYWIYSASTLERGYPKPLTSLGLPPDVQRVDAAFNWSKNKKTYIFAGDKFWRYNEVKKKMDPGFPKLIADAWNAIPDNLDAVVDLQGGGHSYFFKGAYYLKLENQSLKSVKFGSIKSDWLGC
Description: as §1, §2, §3

Row | Structure (SMILES) | IC50 (MMP-13) [nM] | IC50 (MMP-14) [nM] | IC50 (MMP-2) [nM]
1 | O=C(CCCNC(=O)c1cccc(C(=O)NCCCC(=O)NCC[C@@H](NS(=O)(=O)c2ccc(-c3ccccc3)cc2)C(=O)NO)c1)NCC[C@@H](NS(=O)(=O)c1ccc(-c2ccccc2)cc1)C(=O)NO [1b - example 16] | 2.4 | 31 | 3.7
2 | O=C(NCC[C@H](C(=O)NO)N(OCCOCCN1CCN(C(=O)c2cccc(C(=O)N3CCN(CCOCCON([C@H](CCNC(=O)OCc4ccccc4)C(=O)NO)S(=O)(=O)c4ccc(-c5ccccc5)cc4)CC3)c2)CC1)S(=O)(=O)c1ccc(-c2ccccc2)cc1)OCc1ccccc1 [2b - example 17] | 1.93 |  | 3.6
